Experimental data reported in patent US20190145978A1, “APPLICATION OF PDE3A IN JUDGMENT OF TUMOR TREATMENT EFFECT OF ANAGRELID” (Shanghai Institute of Materia Medica, Chinese Academy of …, priority 2016, published 2019).
Like-named read-outs stand apart in the source and are kept apart here.

Assays:
[1] = system: Twenty cell lines negatively expressing PDE3A; test: Antitumor activity assay (MTT), PDE3A-negative cell lines; assay type: cell-based, human
Protocol: (§1) Wherein anagrelide (1 μM) is used for treatment for 72 hours, and MTT assay is used to detect the cell survival rate. The cells are classified by the test results: sensitive (survival rate <40%), moderately sensitive (40-75% of survival rate), resistance (survival rate >75. The cell names in the figure are marked with a circle and a triangle respectively to identify the sensitive group and the moderately sensitive group. 3. Determination of Half Poisoning Dose of Drugs to Cells (MTT Method) The liquid containing drugs was continuously geometrically diluted to 1:10, 1:100, 1:1,000, 1:10,000 with a cell maintenance solution, and a normal cell control group was set up. Different concentrations of each drug were added into a 96-well plate that has been grown into a single layer, respectively, and inoculated per dilution in triplicate, and 100 μl was added per well, and the plate was incubated in a carbon dioxide incubator at 37° C. for 72 h, followed by 5 μg/ml 25 μL of MTT was added. The culture was continued for 3.5 h, and the supernatant was removed and discarded. […] Then the OD value at 570 nm was measured by a microplate reader. The cell viability of each drug dilution was calculated: cell viability %=(mean value of experimental well OD measured value/mean value of control well OD measured value)×100%. […]

[2] = Animal experiment, safety at tumor-inhibiting doses; assay type: in vivo; conditions: 10 mg-200 mg/kg
[3] = system: SMMC7721, FHCC98, H4, and HeLa; test: Antitumor activity assay (MTT), anagrelide-sensitive PDE3A-positive cell lines; assay type: cell-based, human; conditions: for IC50: Homo sapiens
Protocol: Wherein anagrelide (1 μM) is used for treatment for 72 hours, and MTT assay is used to detect the cell survival rate. The cells are classified by the test results: sensitive (survival rate <40%), moderately sensitive (40-75% of survival rate), resistance (survival rate >75. The cell names in the figure are marked with a circle and a triangle respectively to identify the sensitive group and the moderately sensitive group. 3. Determination of Half Poisoning Dose of Drugs to Cells (MTT Method) The liquid containing drugs was continuously geometrically diluted to 1:10, 1:100, 1:1,000, 1:10,000 with a cell maintenance solution, and a normal cell control group was set up. Different concentrations of each drug were added into a 96-well plate that has been grown into a single layer, respectively, and inoculated per dilution in triplicate, and 100 μl was added per well, and the plate was incubated in a carbon dioxide incubator at 37° C. for 72 h, followed by 5 μg/ml 25 μL of MTT was added. The culture was continued for 3.5 h, and the supernatant was removed and discarded. 150 μl of the dissolving solution DMSO was added to each well, and the plate was shaked for 5 to 10 min, until the crystals were completely dissolved. Then the OD value at 570 nm was measured by a microplate reader. The cell viability of each drug dilution was calculated: cell viability %=(mean value of experimental well OD measured value/mean value of control well OD measured value)×100%. The drug concentration at 50% cell poisoning (IC50) was calculated using probability unit regression. The cell lines in Example 1 were subjected to an activity assay using Anagrelide at a concentration of 1 μM, and the cell lines were classified into three categories according to cell viability: sensitive (S), moderately sensitive (M), and insensitive (R), and the IC50 value of anagrelide in inhibiting each cell line was further determined.

[4] = system: HeLa cells transfected with pde3a siRNA; test: RTCA growth monitoring of HeLa cells after pde3a siRNA knockdown and anagrelide treatment; assay type: cell-based, human; conditions: pde3a siRNA KD1/KD2 vs NC
Protocol: Wherein, NC: control group, KD: PDE3A knockdown group. The HeLa cells in logarithmic growth phase were inoculated into 96-well plates or RTCA plates at about 6000/well and cultivated overnight until the cells were attached about 70-80%, and the cells were in good condition; a certain amount of serum-free and antibiotic-free medium was added into two EP tubes, respectively, and a suitable amount of siRNA was added into one tube and mixed, while a suitable amount of Lipofectamine™2000 was added into the other tube and mixed at room temperature for 5-10 min. The medium supplemented with Lipofectamine™ reagent was added into the siRNA-containing EP tube and mixed at room temperature for 15 min; during the placement, the cells were washed once with serum-free and non-double antibody medium, and 75 μL of the medium was added, ready for use. After 15 minutes, the mixed medium was added into the cell culture dish, 25 μL/well, and gently shaken and mixed; after cultured at 37° C., 5% CO2 for 6 hours, the medium was changed to fresh medium containing 10% FBS; after 24-72 h, the expression of RNAi interference protein was detected by western blot. […] The real-time monitor automatically monitored cell growth for more than 4 days, and the amount of cells was reflected according to the size of the resistance formed by spreading the cells. […]

[5] = system: Bel7404, A498 and SW1116; test: Antitumor activity assay (MTT), moderately sensitive PDE3A-positive cell lines; assay type: cell-based, human
Protocol: as §1

[6] = system: platelets; test: Inhibition of platelets in vitro; assay type: cell-based; conditions: Platelet; read-out: IC50 of anagrelide inhibiting platelets in vitro
[7] = system: HeLa cells transfected with pde3a siRNA; test: PI detection of apoptotic cells in HeLa after PDE3A knockdown and anagrelide treatment; assay type: cell-based, human; conditions: 48 hours after PDE3A knockout, anagrelide 36 hours, PI staining
Protocol: The HeLa cells in logarithmic growth phase were inoculated into 96-well plates or RTCA plates at about 6000/well and cultivated overnight until the cells were attached about 70-80%, and the cells were in good condition; a certain amount of serum-free and antibiotic-free medium was added into two EP tubes, respectively, and a suitable amount of siRNA was added into one tube and mixed, while a suitable amount of Lipofectamine™2000 was added into the other tube and mixed at room temperature for 5-10 min. The medium supplemented with Lipofectamine™ reagent was added into the siRNA-containing EP tube and mixed at room temperature for 15 min; during the placement, the cells were washed once with serum-free and non-double antibody medium, and 75 μL of the medium was added, ready for use. After 15 minutes, the mixed medium was added into the cell culture dish, 25 μL/well, and gently shaken and mixed; after cultured at 37° C., 5% CO2 for 6 hours, the medium was changed to fresh medium containing 10% FBS; after 24-72 h, the expression of RNAi interference protein was detected by western blot. In 96-well plates, cells were treated with different compounds for 24-36 hours, and 2 μL of PI dye liquor (25 ug/mL) was added into 96-well plates. Cells were incubated for 20 min, and photographed under a fluorescence microscope for observation of the number of red fluorescent cells. […]

[8] = system: SW1116; test: MTT assay, IC50 of anagrelide on tumor cell line; assay type: cell-based; conditions: Homo sapiens, SW 1116, 72 h
Protocol: (§2) 3. Determination of Half Poisoning Dose of Drugs to Cells (MTT Method)
(§3) The liquid containing drugs was continuously geometrically diluted to 1:10, 1:100, 1:1,000, 1:10,000 with a cell maintenance solution, and a normal cell control group was set up. Different concentrations of each drug were added into a 96-well plate that has been grown into a single layer, respectively, and inoculated per dilution in triplicate, and 100 μl was added per well, and the plate was incubated in a carbon dioxide incubator at 37° C. for 72 h, followed by 5 μg/ml 25 μL of MTT was added.
(§4) The culture was continued for 3.5 h, and the supernatant was removed and discarded. 150 μl of the dissolving solution DMSO was added to each well, and the plate was shaked for 5 to 10 min, until the crystals were completely dissolved. Then the OD value at 570 nm was measured by a microplate reader. The cell viability of each drug dilution was calculated: cell viability %=(mean value of experimental well OD measured value/mean value of control well OD measured value)×100%. The drug concentration at 50% cell poisoning (IC50) was calculated using probability unit regression.
(§5) The cell lines in Example 1 were subjected to an activity assay using Anagrelide at a concentration of 1 μM, and the cell lines were classified into three categories according to cell viability: sensitive (S), moderately sensitive (M), and insensitive (R), and the IC50 value of anagrelide in inhibiting each cell line was further determined.

[9] = system: SMMC7721; test: MTT assay, IC50 of anagrelide on tumor cell line; assay type: cell-based; conditions: Homo sapiens, SMMC-7721, 72 h
Protocol: as §2, §3, §4, §5

[10] = system: A498; test: MTT assay, IC50 of anagrelide on tumor cell line; assay type: cell-based; conditions: Homo sapiens, 72 h
Protocol: as §2, §3, §4, §5

[11] = system: FHCC98; test: MTT assay, IC50 of anagrelide on tumor cell line; assay type: cell-based; conditions: Homo sapiens, FHCC-98, 72 h
Protocol: as §2, §3, §4, §5

[12] = system: H4; test: MTT assay, IC50 of anagrelide on tumor cell line; assay type: cell-based; conditions: Homo sapiens, 72 h
Protocol: as §2, §3, §4, §5

[13] = system: Hela; test: MTT assay, IC50 of anagrelide on tumor cell line; assay type: cell-based; conditions: Homo sapiens, 72 h
Protocol: as §2, §3, §4, §5

[14] = system: Bel7404; test: MTT assay, IC50 of anagrelide on tumor cell line; assay type: cell-based; conditions: Homo sapiens, BEL-7404, 72 h
Protocol: as §2, §3, §4, §5

O=C1CN2Cc3c(ccc(Cl)c3Cl)NC2=N1 [anagrelide, 6,7-dichloro-1,5-dihydroimidazo [2,1-b]quinazolin-2(3H) one]
IC50 ([1]; Homo sapiens, twenty cell lines negatively expressing PDE3A): > 50000 nM
sensitivity class by cell survival rate ([1]; anagrelide 1 μM, 72 hours, MTT): not sensitive
safety at doses that inhibit tumor cell growth [2]: safe
IC50 ([3]; SMMC7721, FHCC98, H4, HeLa (PDE3A positive), read-out: IC50 values, sensitive cell lines): < 30 nM
IC50 ([3]; sensitive tumor cells, in vitro, read-out: IC50 for sensitive tumor cells in vitro): < 30 nM
sensitivity class by cell survival rate ([3]; anagrelide 1 μM, 72 hours, MTT): sensitive (sensitive (survival rate <40%))
survival rate after anagrelide was added, KD vs NC group [4]: the survival rate of KD2 with the lower level of PDE3A protein was the highest, while that in the NC group was the lowest
IC50 ([5]; Homo sapiens, Bel7404, A498, SW1116 (PDE3A positive)): 400 to 16000 nM
sensitivity class by cell survival rate ([5]; anagrelide 1 μM, 72 hours, MTT): moderately sensitive (moderately sensitive (40-75% of survival rate))
IC50 [6]: 270 to 1000 nM
PI positive cells, KD group vs control group [7]: fewer PI positive cells than that in the control group
IC50 [8]: 14500 nM
IC50 [9]: 15 nM
IC50 [10]: 15900 nM
IC50 [11]: 8 nM
IC50 [12]: 23 nM
IC50 [13]: 22 nM
IC50 [14]: 428 nM
